Source: PMC12490239, “Combining BET inhibition with SMAC mimetics restricts tumor growth and triggers immune surveillance in preclinical cancer models” (Cell Reports Medicine, 2025)

What was measured:
Test in all cases: cells
Set-up in all cases: CellTiter-Glo 2.0 luminescence proliferation/viability assay, single agents, human tumour cell line panel
SW837 = conditions: Homo sapiens, SW837, 96 h; single agent; read-out: IC50 SMACm
How it was run: (§1)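 Human tumour cell lines were seeded into assay plates and held at 37°C with 5% CO2 for twenty-four hours, then exposed in triplicate to rising concentrations of the SMAC mimetic, from 4.5 nM to 10 μM, with DMSO as control. After 96 h, viability was read as CellTiter-Glo2.0 luminescence to derive single-agent IC50 values.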

Calu-6 = conditions: Homo sapiens, Calu-6, 96 h; single agent; read-out: IC50 SMACm
How it was run: as §1

NCI-H596 = conditions: Homo sapiens, NCI-H596, 96 h; single agent; read-out: IC50 SMACm
How it was run: as §1

COLO-205 = conditions: Homo sapiens, COLO 205, 96 h; single agent; read-out: IC50 SMACm
How it was run: as §1

- IC50 (SW837): 6.24 µM
- IC50 (Calu-6): 4.93 µM
- IC50 (NCI-H596): 4.41 µM
- IC50 (COLO-205): 4.99 µM
SMILES: CN[C@@H](C)C(=O)Nc1ccc(-c2c(-c3cccnc3OC)nc3cc(C)ccn23)c(C#Cc2ccc3c(C)nccc3c2)n1 [SMACm, BI 891065]
